From PubChem BioAssay AID192 (DTP/NCI, 2004) come the findings set out here.

Several values for one entry are separate records, joined by “and”; a condition that tells them apart may be missing. Equal entries are not always repeated. Inconclusive results and toxic doses are left out.

This experiment has as its system BDF1 mice, B16 melanoma ip, median survival T/C. The experiment can be described thus: NCI In Vivo Anticancer Drug Screen. Data for tumor model B16 Melanoma (intraperitoneal) in B6D2F1 (BDF1) mice. The conditions noted are these: endpoint: median survival time, higher = longer survival. The method, boiled down: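 Survival or tumor size is measured after treatment of tumor-bearing mice and normalised to the vehicle-treated control group.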

[1] abbreviates: dose: 6.25 mg/kg/injection, schedule: Q01DX009 (ip), vehicle: saline with Tween-80.
Setting [2] is: dose: 12.5 mg/kg/injection, schedule: Q01DX009 (ip), vehicle: saline with Tween-80.
[3] abbreviates: dose: 25.0 mg/kg/injection, schedule: Q01DX009 (ip), vehicle: saline with Tween-80.
The mark [4] stands for this setting: dose: 50.0 mg/kg/injection, schedule: Q01DX009 (ip), vehicle: saline with Tween-80.
The mark [5] stands for this setting: dose: 100.0 mg/kg/injection, schedule: Q04DX003 (ip), vehicle: Klucel (hydroxypropylcellulose) (HPC).
The mark [6] stands for this setting: dose: 50.0 mg/kg/injection, schedule: Q01DX009 (ip), vehicle: Klucel (hydroxypropylcellulose) (HPC).
[7] abbreviates: dose: 100.0 mg/kg/injection, schedule: Q01DX009 (ip), vehicle: Klucel (hydroxypropylcellulose) (HPC).
Setting [8] is: dose: 200.0 mg/kg/injection, schedule: Q01DX009 (ip), vehicle: Klucel (hydroxypropylcellulose) (HPC).
Where [9] appears, read: dose: 400.0 mg/kg/injection, schedule: Q01DX009 (ip), vehicle: Klucel (hydroxypropylcellulose) (HPC).
[10] abbreviates: dose: 200.0 mg/kg/injection, schedule: Q04DX003 (ip), vehicle: Klucel (hydroxypropylcellulose) (HPC).
Where [11] appears, read: dose: 400.0 mg/kg/injection, schedule: Q04DX003 (ip), vehicle: Klucel (hydroxypropylcellulose) (HPC).
The mark [12] stands for this setting: dose: 100.0 mg/kg/injection, schedule: Q01DX009 (ip), vehicle: saline with Tween-80.
Setting [13] is: dose: 200.0 mg/kg/injection, schedule: Q01DX009 (ip), vehicle: saline with Tween-80.
Where [14] appears, read: dose: 400.0 mg/kg/injection, schedule: Q01DX009 (ip), vehicle: saline with Tween-80.

Consider `O=C1c2ccccc2C(=O)c2c(NCCSCCO)ccc(NCCSCCO)c21`, for which the T/C was 94 % of control (dose: 16.0 mg/kg/injection, schedule: Q01DX009 (ip), vehicle: Klucel (hydroxypropylcellulose) (HPC)); 103 % of control (dose: 32.0 mg/kg/injection, schedule: Q01DX009 (ip), vehicle: Klucel (hydroxypropylcellulose) (HPC)); 96 % of control (dose: 64.0 mg/kg/injection, schedule: Q01DX009 (ip), vehicle: Klucel (hydroxypropylcellulose) (HPC)); 88 % of control (dose: 128.0 mg/kg/injection, schedule: Q01DX009 (ip), vehicle: Klucel (hydroxypropylcellulose) (HPC)); 87 % of control (dose: 256.0 mg/kg/injection, schedule: Q01DX009 (ip), vehicle: Klucel (hydroxypropylcellulose) (HPC)).

As to `BrC1c2cccc3cccc(c23)C1Br` (centres undefined), the T/C is, setting by setting: under setting [1], 116 % of control; under setting [2], 113 % of control; under setting [3], 124 % of control; under setting [4], 121 % of control.

Consider `CCS/C(SC)=C(/c1ccccc1)[P+](c1ccccc1)(c1ccccc1)c1ccccc1`, for which the T/C (dose: 0.19 mg/kg/injection, schedule: Q01DX009 (ip), vehicle: Klucel (hydroxypropylcellulose) (HPC)) was 99 % of control; the T/C (dose: 0.38 mg/kg/injection, schedule: Q01DX009 (ip), vehicle: Klucel (hydroxypropylcellulose) (HPC)) was 99 % of control; the T/C (dose: 0.75 mg/kg/injection, schedule: Q01DX009 (ip), vehicle: Klucel (hydroxypropylcellulose) (HPC)) was 100 % of control; the T/C (dose: 1.5 mg/kg/injection, schedule: Q01DX009 (ip), vehicle: Klucel (hydroxypropylcellulose) (HPC)) is 95 % of control and 106 % of control.

With `Oc1ccc2ccc3[nH]cnc3c2c1`, the T/C is, setting by setting: (dose: 50.0 mg/kg/injection, schedule: Q04DX003 (ip), vehicle: Klucel (hydroxypropylcellulose) (HPC)) 100 % of control; under setting [5], 105 % of control.

For the compound `COc1cc(C(=O)OCCCN2CCOCC2)cc(OC)c1OC`, the T/C (dose: 0.78 mg/kg/injection, schedule: Q01DX009 (ip), vehicle: saline) is 105 % of control; the T/C (dose: 1.56 mg/kg/injection, schedule: Q01DX009 (ip), vehicle: saline) is 110 % of control; the T/C (dose: 3.12 mg/kg/injection, schedule: Q01DX009 (ip), vehicle: saline) is 110 % of control; the T/C (dose: 6.25 mg/kg/injection, schedule: Q01DX009 (ip), vehicle: saline) was 105 % of control; the T/C (dose: 12.5 mg/kg/injection, schedule: Q01DX009 (ip), vehicle: saline) was 110 % of control; the T/C (dose: 200.0 mg/kg/injection, schedule: Q01DX009 (ip), vehicle: saline) was 89 % of control.

`CC1(C)CC(O)(Cc2ccccc2)C(=O)c2ccccc21` (centres undefined): the T/C is 94 % of control under setting [6], 94 % of control under setting [7], 99 % of control under setting [8] and 97 % of control under setting [9].

In the case of `NC(=O)Oc1ccc(Cc2ccccc2)cc1`, the T/C under setting [5] is 95 % of control, the T/C under setting [10] was 91 % of control and the T/C under setting [11] was 97 % of control.

Regarding `[O-][n+]1c(CN2CCCCC2)nc2cccc3c2c1-c1ccccc1-3`, the T/C is, setting by setting: under setting [6], 102 % of control; under setting [7], 119 % of control; under setting [8], 113 % of control.

On to `Clc1ccc2nc(CBr)cnc2c1`, for which the T/C runs as follows: (dose: 0.75 mg/kg/injection, schedule: Q01DX009 (ip), vehicle: saline with Tween-80) 97 % of control; (dose: 1.5 mg/kg/injection, schedule: Q01DX009 (ip), vehicle: saline with Tween-80) 86 % of control; (dose: 3.0 mg/kg/injection, schedule: Q01DX009 (ip), vehicle: saline with Tween-80) 97 % of control; (dose: 6.0 mg/kg/injection, schedule: Q01DX009 (ip), vehicle: saline with Tween-80) 88 % of control; under setting [1], 87 % of control.

Consider `CC(=O)CC(C)=O.CC(=O)CC(C)=O.[Co]`, for which the T/C by setting is: under setting [1], 97 % of control; under setting [2], 102 % of control; under setting [3], 91 % of control.

With `Cc1ccc(NC(=O)c2ccc(Cl)cc2)cc1Cl`, the T/C runs as follows: (dose: 75.0 mg/kg/injection, schedule: Q01DX009 (ip), vehicle: Klucel (hydroxypropylcellulose) (HPC)) 100 % of control; (dose: 150.0 mg/kg/injection, schedule: Q01DX009 (ip), vehicle: Klucel (hydroxypropylcellulose) (HPC)) 115 % of control; (dose: 300.0 mg/kg/injection, schedule: Q01DX009 (ip), vehicle: Klucel (hydroxypropylcellulose) (HPC)) 88 % of control.

In the case of `ClC(Cl)(Cl)C(N1CCN(c2ccccc2)CC1)N1CCN(c2ccccc2)CC1`, the T/C was 113 % of control under setting [4], 96 % of control under setting [12], 112 % of control under setting [13] and 91 % of control under setting [14].

On to `COc1ccccc1NC(=O)Nc1cc(C)cc(C)n1`, for which the T/C was 94 % of control under setting [12], 94 % of control under setting [13] and 89 % of control under setting [14].

`Cc1cc(C)cc(-n2nnc3ccccc3c2=O)c1`: the T/C is, setting by setting: under setting [7], 108 % of control; under setting [5], 95 % of control; under setting [8], 100 % of control; under setting [10], 91 % of control; under setting [9], 86 % of control; under setting [11], 93 % of control.

As to `O=[N+]([O-])c1cc([N+](=O)[O-])c(Nc2cccc3ccccc23)c([N+](=O)[O-])c1`, the T/C is, setting by setting: under setting [6], 92 % of control; under setting [7], 103 % of control; under setting [8], 97 % of control.

On to `CCN(C(=O)Nc1ccc(OC)cc1)c1ccccc1C`, for which the T/C runs as follows: under setting [5], 102 % of control; under setting [10], 102 % of control; under setting [11], 102 % of control.

With `C=CCCOC(C)=O`, the T/C reads like this: under setting [6], 100 % of control; under setting [7], 108 % of control; under setting [8], 108 % of control.

On to `O=NN(CCF)C(=O)NC1CCCCC1`, for which the T/C was 115 % of control (dose: 7.5 mg/kg/injection, schedule: Q01DX001 (ip), vehicle: saline + alcohol); 106 % of control (dose: 15.0 mg/kg/injection, schedule: Q01DX001 (ip), vehicle: saline + alcohol); 119 % of control (dose: 30.0 mg/kg/injection, schedule: Q01DX001 (ip), vehicle: saline + alcohol); 171 % of control (dose: 60.0 mg/kg/injection, schedule: Q01DX001 (ip), vehicle: saline + alcohol); 166 % of control (dose: 120.0 mg/kg/injection, schedule: Q01DX001 (ip), vehicle: saline + alcohol).
